From patent US20040102622A1, “Modulation of hepatocyte growth factor receptor expression” (Isis Pharmaceuticals Inc., priority 2002, published 2004)
Strand notation (5' to 3'): a small letter for the sugar, then the base; units joined by * are phosphorothioate-linked, units joined directly phosphodiester-linked; [ ] holds rarer units or linkages, { } end groups; capitals alone tell only the bases. e = 2'-O-(2-methoxyethyl) (MOE); [5mC] = 5-methylcytosine; d = 2'-deoxy (DNA)

test system: human hepatocyte growth factor receptor mRNA; experiment: Inhibition of human hepatocyte growth factor receptor mRNA levels in T-24 cells, quantitative real-time PCR; details: averages from three experiments; note: test concentration or dose not given here

| Substance | % INHIB (inhibition of human hepatocyte growth factor receptor mRNA levels) |
| --- | --- |
| 155097 (antisense e[5mC]*e[5mC]*eT*e[5mC]*eG*dG*dT*d[5mC]*dA*dG*dA*dA*dA*dT*dT*eG*eG*eG*eA*eA) [compound 155097] | 53% |
| 155098 (antisense eT*e[5mC]*eA*eG*eA*dA*dG*dT*dG*dT*d[5mC]*d[5mC]*dT*dA*dT*eT*eA*eA*eA*eG) [compound 155098] | 48% |
| 155099 (antisense e[5mC]*eA*eG*eG*eT*dT*dT*dT*dT*d[5mC]*d[5mC]*d[5mC]*dA*dA*d[5mC]*eA*e[5mC]*e[5mC]*eT*eG) [compound 155099] | 77% |
| 155100 (antisense eA*eG*e[5mC]*eT*eG*dA*dT*dA*d[5mC]*dT*dT*d[5mC]*dA*dT*dA*eT*eT*e[5mC]*eA*e[5mC]) [compound 155100] | 0% |
| 155101 (antisense eT*eT*e[5mC]*eA*eG*d[5mC]*d[5mC]*dA*d[5mC]*dA*dG*dG*dA*dA*dA*eA*eA*e[5mC]*e[5mC]*e[5mC]) [compound 155101] | 40% |
| 155102 (antisense eG*eA*eG*eA*eG*dG*d[5mC]*dA*dT*dT*dG*dA*d[5mC]*dT*dG*e[5mC]*eA*eG*eG*eA) [compound 155102] | 35% |
| 155103 (antisense eT*eG*eG*eG*eA*dA*dG*d[5mC]*dT*dG*dA*dT*dA*d[5mC]*dT*eT*e[5mC]*eA*eT*eA) [compound 155103] | 86% |
| 155104 (antisense eA*eT*eG*e[5mC]*eA*dA*dT*dG*dG*dA*dT*dG*dA*dT*d[5mC]*eT*eG*eG*eG*eA) [compound 155104] | 84% |
| 155105 (antisense eA*eT*e[5mC]*eA*eA*dA*dG*dT*dA*dT*dT*dT*dG*dG*dA*eA*eA*eG*eG*eA) [compound 155105] | 64% |
| 155106 (antisense e[5mC]*eA*e[5mC]*eA*eA*d[5mC]*d[5mC]*dT*dG*d[5mC]*dA*dT*dG*dA*dA*eG*e[5mC]*eG*eA*e[5mC]) [compound 155106] | 66% |
| 155107 (antisense eT*e[5mC]*e[5mC]*eG*e[5mC]*dG*dG*dT*dG*dA*dA*dG*dT*dT*dG*eG*eG*eA*eA*eG) [compound 155107] | 42% |
| 155108 (antisense eA*eT*eT*e[5mC]*eT*d[5mC]*dG*dG*dG*dA*d[5mC]*dA*d[5mC]*dT*dA*eA*e[5mC]*eT*eG*eA) [compound 155108] | 79% |
| 155109 (antisense eA*eG*e[5mC]*eT*e[5mC]*dG*d[5mC]*dT*dG*dT*dT*d[5mC]*dA*dA*dT*eT*eT*e[5mC]*eA*eG) [compound 155109] | 80% |
| 155110 (antisense eT*e[5mC]*eG*eG*eG*dA*d[5mC]*dA*d[5mC]*dT*dA*dA*d[5mC]*dT*dG*eA*eA*eT*eT*e[5mC]) [compound 155110] | 79% |
| 155111 (antisense eG*eT*eT*e[5mC]*eG*dG*d[5mC]*dA*dG*dA*dA*dT*d[5mC]*dT*dG*eG*e[5mC]*eT*eT*eG) [compound 155111] | 86% |
| 155112 (antisense eT*eA*eG*eG*eA*dG*dT*d[5mC]*dT*dT*d[5mC]*dT*d[5mC]*d[5mC]*d[5mC]*eT*eT*eG*e[5mC]*eA) [compound 155112] | 81% |
| 155113 (antisense e[5mC]*eT*eA*eA*eT*dG*dA*dG*dT*dT*dG*dA*dT*d[5mC]*dA*eT*e[5mC]*eA*eT*eA) [compound 155113] | 83% |
| 155114 (antisense eA*eA*eT*eT*eG*dT*dT*dG*d[5mC]*dT*dT*dT*d[5mC]*dA*dA*eA*eG*eG*e[5mC]*eA) [compound 155114] | 94% |
| 155115 (antisense eA*eG*eT*eT*e[5mC]*d[5mC]*dT*dT*d[5mC]*d[5mC]*dT*dG*d[5mC]*dT*dT*e[5mC]*eA*eT*eG*e[5mC]) [compound 155115] | 89% |
| 155116 (antisense eA*eA*eA*eT*e[5mC]*dT*dT*dT*d[5mC]*dA*dT*dG*dA*dT*dG*eA*eT*eT*e[5mC]*e[5mC]) [compound 155116] | 54% |
| 155117 (antisense eG*eT*eA*eG*eA*dT*dT*dG*d[5mC]*dA*dG*dG*d[5mC]*dA*dG*eA*e[5mC]*eA*eG*eA) [compound 155117] | 75% |
| 155118 (antisense e[5mC]*eA*eT*e[5mC]*e[5mC]*dA*dG*d[5mC]*dA*dT*dA*d[5mC]*dA*dG*dT*eT*eT*e[5mC]*eT*eT) [compound 155118] | 55% |
| 155119 (antisense eA*eA*eG*eT*eA*dT*dA*dT*dT*dA*dA*dA*d[5mC]*dA*d[5mC]*eT*eT*e[5mC]*e[5mC]*eT) [compound 155119] | 92% |

| Substance | % INHIB (inhibition of human hepatocyte growth factor receptor mRNA levels) |
| --- | --- |
| 155120 (antisense eG*eT*eG*eT*e[5mC]*d[5mC]*dT*dA*dT*dT*dA*dA*dA*dG*d[5mC]*eA*eG*eT*eG*e[5mC]) [compound 155120] | 90% |
| 155121 (antisense eT*eG*eA*eA*eA*dG*dG*dA*d[5mC]*dT*dT*dT*dG*dG*d[5mC]*eT*e[5mC]*e[5mC]*e[5mC]*eA) [compound 155121] | 79% |
| 155122 (antisense eA*eA*eG*e[5mC]*e[5mC]*dT*dA*dT*d[5mC]*d[5mC]*dA*dA*dA*dT*dG*eA*eG*eG*eA*eG) [compound 155122] | 69% |
| 155123 (antisense eG*e[5mC]*eA*eA*eA*dG*d[5mC]*dT*dG*dT*dG*dG*dT*dA*dA*eA*e[5mC]*eT*e[5mC]*eT) [compound 155123] | 91% |
| 155124 (antisense eT*eA*eT*eG*eA*dT*dG*dT*d[5mC]*dT*d[5mC]*d[5mC]*d[5mC]*dA*dG*eA*eA*eG*eG*eA) [compound 155124] | 53% |
| 155125 (antisense eG*eG*eA*eA*eA*d[5mC]*dT*dG*dA*dT*d[5mC]*dT*dT*d[5mC]*dT*eG*eG*eA*eA*eA) [compound 155125] | 52% |
| 155126 (antisense e[5mC]*eT*eG*eT*eG*d[5mC]*dA*dT*dT*dT*d[5mC]*dA*dA*dT*dG*eT*eA*eT*eT*e[5mC]) [compound 155126] | 68% |
| 155127 (antisense eG*eA*eT*e[5mC]*eT*dG*dG*dT*dT*dG*dA*dA*d[5mC]*dT*dA*eT*eT*eA*e[5mC]*eT) [compound 155127] | 84% |
| 155128 (antisense eA*e[5mC]*eT*eG*eT*dG*dA*dA*dT*dT*dT*dT*dT*d[5mC]*dA*eT*e[5mC]*e[5mC]*eA*eG) [compound 155128] | 83% |
| 155129 (antisense eG*eA*eT*eT*eG*dG*dG*dT*d[5mC]*d[5mC]*dG*dT*dA*dA*dA*eA*eA*eT*eG*e[5mC]) [compound 155129] | 59% |
| 155130 (antisense eT*e[5mC]*eT*e[5mC]*eT*dG*dA*dA*d[5mC]*dT*d[5mC]*dA*dG*dG*dT*eA*eA*eA*eA*e[5mC]) [compound 155130] | 83% |
| 155131 (antisense e[5mC]*eA*eA*eT*eT*dT*dG*dG*d[5mC]*dA*dA*dG*dG*dA*dG*e[5mC]*eA*eA*eA*eG) [compound 155131] | 0% |
| 155132 (antisense eG*eA*eT*eT*e[5mC]*d[5mC]*d[5mC]*dT*d[5mC]*dG*dG*dT*d[5mC]*dA*dG*eA*eA*eA*eT*eT) [compound 155132] | 39% |
| 155133 (antisense eA*eA*eA*e[5mC]*e[5mC]*dA*dT*dT*dT*d[5mC]*dT*dG*dT*dA*dG*eT*eT*eG*eG*eG) [compound 155133] | 68% |
| 209521 (antisense eG*eG*eA*eA*e[5mC]*d[5mC]*dA*dG*dT*dG*dG*dA*dG*dA*dA*eG*eT*e[5mC]*eA*eG) [compound 209521] | 58% |
| 209522 (antisense eA*eG*eA*eG*eG*dT*dT*dT*dA*dT*d[5mC]*dT*dT*dT*d[5mC]*eG*eG*eT*eG*e[5mC]) [compound 209522] | 73% |
| 209523 (antisense eG*eG*eG*e[5mC]*e[5mC]*dT*dT*d[5mC]*dA*dT*dT*dA*dT*dG*dA*eG*eA*eG*eG*eT) [compound 209523] | 84% |
| 209524 (antisense e[5mC]*eT*e[5mC]*eA*eT*dG*dT*dA*dG*dA*dA*dT*dG*dA*d[5mC]*eA*eT*eT*e[5mC]*eT) [compound 209524] | 95% |
| 209525 (antisense e[5mC]*eT*eG*eG*eT*d[5mC]*d[5mC]*dG*dT*d[5mC]*dA*dA*dA*dA*dA*e[5mC]*eA*eT*eA*eA) [compound 209525] | 89% |
| 209526 (antisense eT*eT*eG*eA*eT*dA*dG*dG*dG*dA*dA*dT*dG*d[5mC]*dA*e[5mC]*eA*e[5mC]*eA*eT) [compound 209526] | 93% |
| 209527 (antisense e[5mC]*eG*e[5mC]*eT*eT*d[5mC]*dA*d[5mC]*dA*dG*d[5mC]*d[5mC]*dT*dG*dA*eT*eG*eA*eA*eT) [compound 209527] | 81% |
| 209528 (antisense eT*eT*eG*eG*eG*dA*dA*dA*dA*d[5mC]*d[5mC]*dT*dT*dG*dT*eA*eG*eA*eT*eT) [compound 209528] | 42% |
